Measurements from patent US10343974B1, “Cyclohexanol ethers as mediterranean fruit fly attractants” (The United States of America, as Represented by the …, priority 2018, dated 2019).

Tested on: not given
Test: not given
Conditions: DeMilo 1992; cited from earlier work

| Molecule | stability in formulations and the environment |
| --- | --- |
| ethyl esters of 4 (and 5)-iodo-2-methylcyclohexane-1-carboxylate [CER] | unstable |

Tested on: male medfly
Test: not given
Conditions: classification in the literature; cited from earlier work

| Molecule | attractant strength for male medfly |
| --- | --- |
| tert-butyl 4- (and 5)-chloro-2-methylcyclohexanecarboxylate [Trimedlure, reference compound] | weak attractant |

Tested on: Mediterranean fruit flies
Test: Field cage bioassay: attraction of male Mediterranean fruit flies to Jackson traps baited with PVC plugs
Type: in vivo, Ceratitis capitata
Conditions: grand mean capture ± 2 pooled standard deviations; ~100 mg PVC plug with ~40% compound in Jackson trap; screened field cage, 24-hour period; 150 male flies released per cage; same letter = not significantly different (P >0.05)
Experimental: Assessment of Biological Properties: Compounds were assessed for the ability to attract Mediterranean fruit flies in an enclosed field cage.
Formulation of compounds on PVC disks: All test compounds were >95% pure by GC-MS, except for (1R*,2R*,5R*)-sec-butyl 5-methoxy-2-methylcyclohexanecarboxylate which was tested as a mixture of diastereomers due to the use of (±)-2-butanol in the formation of the ester, and were formulated as ˜100 mg polymeric plugs containing ˜40% by mass of a compound of Formula (I). A typical protocol dissolved polyvinyl chloride (PVC) (864 mg), dibutyl phthalate (DBP) (432 mg), dioctyl phthalate (DOP) (432 mg), (1R*,2R*,5R*)-ethyl 5-methoxy-2-methylcyclohexanecarboxylate (1) (1.152 g) in THF (8.64 g). The mixture was then pipetted (˜400 mg) into respective porcelain wells. The THF was allowed to evaporate by warming the porcelain plate at 40° C. for 15 minutes, and then standing at room temperature until a constant weigh was achieved, to afford ˜26 PVC-attractant disks with a mass of 104.0±3.4 mg, (x±s).
Bioassays: Compounds were evaluated in screened field cages (3×3×2.5 meters) over a 24-hour period. Each field cage housed a single carousel, centered on the ceiling about 2 meters above the floor of the enclosure, which rotated (˜1 revolution/min) 8 equally-spaced Jackson traps. A polymeric plug containing a test compound was placed in a small basket in each Jackson trap with a sticky insert to record the number of fly catches. Test compounds (6) were screened together with two “standard” attractants, TML (FarmaTech, USA) and (±)-CER-B1 (prepared according to Khrimian, A., et al., Tetrahedron, 59: 5475 (2003)). A typical experiment (1) used 3 cages and began between 9-10 am each day, (2) TML and (±)-CER-B were arranged at two directly opposing poles of the carousel with 6 test compounds (3 on each side of TML and (±)-CER-B1) randomly placed relative to the standards, (3) 6 randomly-selected patterns were tested over a 2-day period, with the same sequence of patterns repeated three times (days 1 & 2, days 3 & 4, and days 5 & 6) for a total of 3 replicates, (4) each 2-day period (days 1 & 2, days 3 & 4, and days 5 & 6) used a different cohort of 7-8 day old laboratory reared male Mediterranean fruit flies (n=3), and (5) 150 male Mediterranean fruit flies were released each morning per 24-h cage bioassay for a total of 900 flies per cohort and 2700 flies during the entire testing period. A fresh lure was used for each cage experiment (n=18). Mean fly catch numbers are depicted in the table below.
For each cohort, a single-factor ANOVAs was applied to test the null hypothesis that the mean capture of a particular lure across both days (six trials total, three each day) could be used to estimate attraction. […] An additional single-factor ANOVAs was applied to test the null hypothesis that the grand mean capture of a particular lure could be used to estimate attraction, independent of the cohort. Again, none of the lure-respective ANOVAs were significant, a result that provided evidence to support congruence in the biological response across all cages, days, and cohorts. Also depicted in the table below, the grand mean capture ±2 pooled standard deviations (2 spooled) (Skoog, D. and Leary, J., Principles of Instrumental Analysis, John Wiley & Sons, Eds: New York, 1992). In general, the most attractive compounds in the above bioassay captured a similar (statistically equivalent) or greater number of flies relative to trimedlure.

| Molecule | Mean Catch per replicate |
| --- | --- |
| CCOC(=O)[C@@H]1C[C@H](OC)CC[C@H]1C (relative stereo) [(1R*,2R*,5R*)-ethyl 5-methoxy-2-methylcyclohexanecarboxylate] | 91.0 ± 9.8 days |
| tert-butyl 4- (and 5)-chloro-2-methylcyclohexanecarboxylate [Trimedlure, reference compound] | 82.7 ± 11.3 days |
| CO[C@@H]1CC[C@@H](C)[C@H](C(=O)OC(C)C)C1 (relative stereo) [(1R*,2R*,5R*)-isopropyl 5-methoxy-2-methylcyclohexanecarboxylate] | 64.7 ± 10.2a |
| CCC(C)OC(=O)[C@@H]1C[C@H](OC)CC[C@H]1C (relative stereo) [(1R*,2R*,5R*)-sec-butyl 5-methoxy-2-methylcyclohexanecarboxylate] | 13.7 ± 3.0c |
| CCOC(=O)[C@@H]1C[C@H](I)CC[C@H]1C (relative stereo) [Ceralure-B1, (1R*,2R*,5R*)-ethyl 5-iodo-2-methylcyclohexanecarboxylate, reference compound] | 94.0 ± 10.7 days |
| CO[C@@H]1CC[C@@H](C)[C@H](C(=O)OC(C)(C)C)C1 (relative stereo) [(1R*,2R*,5R*)-tert-butyl 5-methoxy-2-methylcyclohexanecarboxylate] | 9.0 ± 2.8c |
| CCCOC(=O)[C@@H]1C[C@H](OC)CC[C@H]1C (relative stereo) [(1R*,2R*,5R*)-propyl 5-methoxy-2-methylcyclohexanecarboxylate] | 38.0 ± 9.7b |
| CO[C@@H]1CC[C@@H](C)[C@H](C(=O)OCC(F)(F)F)C1 (relative stereo) [(1R*,2R*,5R*)-2,2,2-trifluoroethyl 5-methoxy-2-methylcyclohexanecarboxylate] | 94.0 ± 11.5 days |
